Experimental findings from PubChem BioAssay AID1996 are described below.

≈ marks a conversion by molar mass, not a printed value. A value given as a limit tells only on which side of the number the result lay.

For this data set the following is noted: buffer; pH 7.4; 200.0 µM.
What is called solubility (kinetic) is the concentration staying in solution when a stock, usually in DMSO, is diluted into the medium. With `CC1CN(C(=O)c2ccc(COc3ccccc3Cl)o2)CC(C)O1` (stereo unspecified), the solubility (kinetic) was more than 52.5 µg/mL.
Compound `Cc1ccc(NC(=O)Cn2nc(C)c(S(=O)(=O)N(C)C)c2C)cc1` had a solubility (kinetic) of more than 52.6 µg/mL.
The compound `O=S(=O)(Nc1cccc(Oc2ccc(Cl)cc2)n1)c1ccc(F)cc1` yielded a kinetic solubility of 41.9 µg/mL (≈ 111 µM).
Under `CCc1c(C(=O)NC(C)C2CCCO2)csc1C` (stereo unspecified) stands 35.9 µg/mL (≈ 134 µM); under `O=C(NC1C/C(=N/O)c2cc3c(cc21)OCO3)C(F)(F)F` (stereo unspecified), 32.3 µg/mL (≈ 107 µM); under `CCN1CCN(C(=O)c2cc(=O)c3cc(C)ccc3o2)CC1`, more than 45.1 µg/mL.
The compound `O=c1[nH]c(/C=C\c2cccc(C(F)(F)F)c2)nc(O)c1[N+](=O)[O-]` came in with a kinetic solubility of more than 49.1 µg/mL.
For `COc1ccc(NC(=O)Cn2cc(C#N)c3ccccc32)cc1` the value was less than 0.2 µg/mL.
For `Cc1cc(C(=O)COC(=O)C(C)NC(N)=O)c(C)n1Cc1ccco1` (stereo unspecified) the value was 45.7 µg/mL (≈ 132 µM); for `CCc1ccc(C2CC(=O)Nc3c2c(=O)nc2c(C)cccn32)cc1` (stereo unspecified), more than 50 µg/mL; for `CC(=O)C1C(c2ccc(Cl)cc2)c2c(noc2C)CC1(C)O` (stereo unspecified), more than 48 µg/mL.
In turn, `Cn1c(=NC(=O)COc2ccccc2)sc2cccc(F)c21` had a kinetic solubility of less than 0.3 µg/mL.
For `C/C(=N\Nc1nc(C)cc(C)n1)c1ccc(C)o1` the value was more than 36.6 µg/mL.
Turning to `O=C1c2ccccc2C(O)(c2ccccc2)N1CCc1ccccc1` (stereo unspecified), the solubility (kinetic) came to 1.3 µg/mL (≈ 3.95 µM).
For `COc1ccc2ccccc2c1CNCCc1ccccc1.Cl` the value was 42 µg/mL.
Under `N#C/C(=C\c1ccncc1)C(=O)Nc1ccc(C(=O)O)cc1` stands more than 44 µg/mL; under `Cc1cc(=O)[nH]c(-c2ccc(C(F)(F)F)cc2)n1`, more than 38.1 µg/mL.
`O=C1[C@@H]2CSCN2C(=O)CN1Cc1c(F)cccc1Cl` showed a solubility (kinetic) of more than 47.2 µg/mL.
Under `Cl.c1coc(C2=NCCc3ccccc32)c1` stands 27.9 µg/mL.
Under `Cc1cccc(NC(=O)c2c(O)c3ccccc3n(C)c2=O)c1` stands less than 0.3 µg/mL; under `CCO/C=C1/C(=O)N(c2ccc(OC)cc2)C(=O)c2ccccc21`, more than 48.5 µg/mL; under `Cc1ccc(S(=O)(=O)NCCc2ccncc2)cc1[N+](=O)[O-]`, 46.2 µg/mL (≈ 144 µM).
The compound `Clc1ccccc1Nc1nc2ccccc2o1` displayed a solubility (kinetic) of 2.3 µg/mL (≈ 9.4 µM).
Under `CN1CCN(C2CC(=O)N(CCc3ccccc3)C2=O)CC1` (stereo unspecified) stands more than 45.2 µg/mL; under `Cc1ccc2[nH]c3c(c2c1)CNCC3.Cl`, 31.7 µg/mL; under `NC(=O)c1ccc(NC(=O)CCN2C(=O)c3ccccc3C2=O)cc1`, 10.6 µg/mL (≈ 31.4 µM).
Take `COC(=O)C1=C(C)N(C)C(=O)NC1c1cccc2ccccc12` (stereo unspecified): the solubility (kinetic) was found to be 30.2 µg/mL (≈ 97.3 µM).
The compound `CCCCCCNc1nc(Cl)nc(NC(C)(C)CO)n1` came in with a solubility (kinetic) of 3.1 µg/mL (≈ 10.3 µM).
On to `Cc1cc(NC(=O)CSc2ncnc3sccc23)no1`, for which the solubility (kinetic) worked out at 19.3 µg/mL (≈ 63 µM). Against the preceding compound, the solubility kinetic is about 6.2-fold higher.
For `CC(C)CNC(=O)C(=O)Nc1cc2c3c(c1)CCC(=O)N3CCC2` the value was 5 µg/mL (≈ 15.2 µM).
With `CCC(=O)Nc1cc(OC)cc(OC)c1`, the kinetic solubility was more than 31.4 µg/mL.
Under `O=c1oc2ccccc2c(Nc2ccc(F)cc2)c1[N+](=O)[O-]` stands 8.4 µg/mL (≈ 28 µM); under `COc1ccc(OC)c(N/C(=N/c2nc(C)cc(C)n2)NC(C)=O)c1`, 0.6 µg/mL (≈ 1.75 µM); under `Cc1cc2nc(/N=C(\N)NC(=O)C(C)C)nc(C)c2cc1C`, 2.9 µg/mL (≈ 9.69 µM).
In turn, `CCCCc1nc2cc(Cl)ccc2o1` displayed a kinetic solubility of less than 0.4 µg/mL.
For `Nc1ccc[n+](CC(=O)c2ccccc2)c1.[Br-]` the value was more than 44 µg/mL; for `O=C(CN1C(=O)COc2ccccc21)NCC1CCCO1` (stereo unspecified), more than 43.5 µg/mL; for `CCn1cc(CCC(=O)NC(C)c2ccccc2)c2ccccc21` (stereo unspecified), 7.4 µg/mL (≈ 23.1 µM).
Under `CCCC(=O)Nc1ccccc1NC(=O)c1ccc(OC(C)=O)cc1` stands 47.5 µg/mL (≈ 140 µM); under `CCCCC(=O)N=c1sc2cc([N+](=O)[O-])ccc2n1C`, less than 0.2 µg/mL.
`Cl.Nc1ccc(-c2nc3c(ccc4ccccc43)[nH]2)cc1`: the kinetic solubility is more than 44.4 µg/mL.
For `O=C(NN1CCOCC1)c1ccc(Br)s1` the value was more than 43.7 µg/mL; for `O=C(O)/C=C/C(=O)Nc1ccc(N2CCOCC2)nc1N1CCOCC1`, more than 54.4 µg/mL; for `COc1cc(CC(=O)OCC(=O)NC(C)c2ccccc2)cc(OC)c1OC` (stereo unspecified), more than 58.1 µg/mL.
Take `Cc1ccc(NS(=O)(=O)c2c(C)[nH]c(=O)[nH]c2=O)c(C)c1`: the solubility (kinetic) was more than 46.4 µg/mL.
For the compound `Cl.O=[N+]([O-])c1cc(CN(CCO)CCO)ccc1O`, the solubility (kinetic) is more than 43.9 µg/mL.
In the case of `OC(CC#CCN1CCCC1)(c1ccccc1)c1ccccc1`, the solubility (kinetic) was found to be 36.7 µg/mL (≈ 120 µM).
`CCOCCn1c(N2CCCC2)nc2c1c(=O)n(C)c(=O)n2C` yielded a solubility (kinetic) of more than 48.2 µg/mL.
`COc1ccc(N2CCN(C(=O)Cc3coc4cc(C)ccc34)CC2)cc1` had a kinetic solubility of 25.9 µg/mL (≈ 71.1 µM).
Under `O=C(NC1CCSc2ccccc21)c1c(F)cccc1Cl` (stereo unspecified) stands 7.2 µg/mL (≈ 22.4 µM); under `Cc1cc(=O)[nH]c(SCc2cn3ccccc3n2)n1`, more than 40.8 µg/mL.
